This note sets out measurements from US20140335166A1, “Methods of Making and Using Nano Scale Particles” (priority 2013, published 2014).

In this assay the test system is Cultured liver cells. Briefly: Phosphatidylcholine biosynthesis as measure of cell function in cultured liver cells incubated with ethanol. The following applies: 100 mM ethanol, 24 hours. Format: cell-based. The procedure:
As an example of the effectiveness of using the PPC, the following experiments were conducted. Cultured liver cells were incubated for 24 hours with 100 mM ethanol in the presence of (1) water, (2) VEP/EPC (egg phosphatidylcholine), or (3) VEP/PPC. Agent-dependent alterations in cell function were determined by measuring phosphatidylcholine biosynthesis. Similar results were obtained in the three separate preparations of cultured cells, all of which are reflected in the Table 1 set forth below. Control cells are expressed as 100%, meaning full cellular function. A reduction below 100% represents a decrease in cell function.

Turning to `CCO` [Ethanol], the “reduction in cell function from control cells” value is given as 63%. Further, the “% Control ± SEM (phosphatidylcholine biosynthesis, cell function)” value (control cells = 100%, VEP/EPC (15 Mm EPC), VEP/PPC (15 Mm VEP and 30 Mm PPC)) is recorded as 37 ± 1 %.
